Measurements: patent US20260355184A1, “SMALL MOLECULE DEGRADERS OF HIV-1 TAT PROTEIN” (priority 2022, published 2026)
Read-outs that look alike come from different tables or passages of the source.

Experiments:
[1] = target: Tat variants with cysteine or core regions truncated (Human immunodeficiency virus type 1 (HXB3 ISOLATE), UniProt P69698); settings: TT-44856 and TT-44863 40 μM, TT-44881 60 μM
Source text: (§1) The molecular docking of HIV Tat protein bound to dCA was previously reported, informed by a series of more than 60 analogs of dCA, using AutoDock Vina with the NMR HIV Tat Mal protein (D clade) as a template (Protein data Bank, PDB entry 1K5K)21. […] Single changes to residues Y26 and F38 decrease Tat transactivation activity^33-36. […] To validate the molecular docking model, Tat variants with either deletions or mutated residues were used in degradation assays in the presence of leads.

[2] = target: Tat Y26A (Human immunodeficiency virus type 1 (HXB3 ISOLATE), UniProt P69698, Y26A); settings: TT-44856 and TT-44863 40 μM, TT-44881 60 μM
Chain of Tat Y26A (P69698 whole entry Y26A): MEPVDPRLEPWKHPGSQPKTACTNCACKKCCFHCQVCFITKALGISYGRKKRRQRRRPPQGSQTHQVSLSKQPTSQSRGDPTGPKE
Source text: as §1

[3] = target: Tat F38A (Human immunodeficiency virus type 1 (HXB3 ISOLATE), UniProt P69698, F38A); settings: TT-44856 and TT-44863 40 μM, TT-44881 60 μM
Chain of Tat F38A (P69698 whole entry F38A): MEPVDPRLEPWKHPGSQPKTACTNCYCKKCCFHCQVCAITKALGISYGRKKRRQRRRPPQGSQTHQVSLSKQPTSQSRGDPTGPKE
Source text: as §1

[4] = system: HIV Tat; assay: Tat-TAR assay (HIV LTR luciferase transactivation, PL11 cells); format: cell-based; settings: for activity against Tat 86 a.a. from different HIV clades: HIV clade B, C and E, n=1; for IC50 against Tat 86 and 101 residues (comparison): Tat 86 a.a. vs 101 a.a.
Source text: Tat is a 14 kDa protein that is synthesized from an mRNA joined from 2 coding exons (FIG. 1B). The first exon encodes amino acids 1-72 and (in most strains of HIV), the second exon encodes amino acids 73-101. An N-terminal 86-amino acid form of Tat produced in a few laboratory-passaged virus strains is frequently used to study Tat. The classic cell-based Tat transactivation assay of the HIV LTR driving luciferase was optimized as a reporter gene for HTS9 (FIG. 2A). […] LTR activation is triggered by transfection of a plasmid expressing HIV-1HXB3 Tat (101 a.a.) driven by the phosphoglycerate (PGK) promoter.

[5] = system: HeLa-CD4-LTR-LacZ cells; assay: Cytotoxicity assay, Cell-Titer-Glo, HeLa-CD4-LTR-LacZ; settings: Cell-Titer-Glo in parallel to infectivity assay
Method in brief: (§2)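 HeLa-CD4-LTR-LacZ reporter cells (β-Gal under HIV 5′ LTR) infected with HIV NL4.3; β-Gal activity read 72 h post infection, with parallel Cell-Titer-Glo viability. OM10.1 carry a single wild-type provirus; ACH-2 a single provirus with TAR C37T mutation, defective Tat-TAR feedback.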

[6] = as above; settings: human, hela-cd4-ltr-lacz cells, Infectivity CC50, HeLa-CD4-LTR-LacZ
Method in brief: as §2

[7] = system: HIV NL4.3 strain; assay: HIV infectivity assay, reporter cell line HeLa-CD4-LTR-LacZ, β-Gal activity (Tat protein inhibition); format: cell-based, HIV-1 (NL4.3)
Method in brief: as §2

[8] = system: PL11 cells; assay: Tat independent transactivation counter-screen with TNFα, PL11 cells; format: cell-based; settings: PL11 cells activated with TNFα
Source text: Tat is a 14 kDa protein that is synthesized from an mRNA joined from 2 coding exons (FIG. 1B). The first exon encodes amino acids 1-72 and (in most strains of HIV), the second exon encodes amino acids 73-101. An N-terminal 86-amino acid form of Tat produced in a few laboratory-passaged virus strains is frequently used to study Tat. The classic cell-based Tat transactivation assay of the HIV LTR driving luciferase was optimized as a reporter gene for HTS9 (FIG. 2A). The assay concept is exceptionally robust, includes all the cellular components needed for transcriptional activation, and is very well-suited for an HTS for Tat antagonists. Compared with alternative approaches, this classic assay consistently outperformed the others. […] LTR activation is triggered by transfection of a plasmid expressing HIV-1HXB3 Tat (101 a.a.) driven by the phosphoglycerate (PGK) promoter. The assay called “Tat-TAR assay” was validated, and found robust and very well suited for an HTS platform, with a signal to background ratio of 407:1, a signal to noise ratio of 10:1, and a Z′=0.67. The cytotoxicity screen was performed in parallel (Cell-Titer-Glo, Promega), showing a signal to background ratio 898:1, signal to noise ratio 21:1 and a Z′=0.86. […] These hits were counter-screened in a Tat independent transactivation assay using TNFα to activate PL11 cells, resulting in the selection of 30 hits.

[9] = system: OM10.1 and ACH-2 cells; assay: Toxicity / cell viability in latent cell models; settings: OM10.1 and ACH2; 96-day period with ARVs
Procedure: (§3) Next, the activity of these leads against HIV infection was evaluated using the reporter cell line HeLa-CD4-LTR-LacZ, which stably expresses the β-galactosidase (β-Gal) gene under the control of the HIV 5′ LTR. The HIV NL4.3 strain was used for these studies and β-Gal activity was measured 72 hrs post infection (FIG. 3A). Cytotoxicity assays using Cell-Titer-Glo were performed in parallel to assess cell viability (FIG. 3A). […] Their anti-HIV activity was further assessed in acute replication of Jurkat T cells with the NL4.3 strain (FIG. 3A). […] These OM10.1 cells contain a single integrated wild-type provirus, while ACH-2 cells contain a single integrated provirus with a TAR mutation C37T, defective Tat-TAR feedback loop (FIG. 3B).

[10] = system: ACH2 cells; assay: SAHA mediated reactivation from latency in ACH2 cells; format: cell-based, HIV; settings: text: day 12 and 32, FIG. 4B legend: day 12, vs DMSO+ARVs
[11] = system: TAR-SIIB promoter (Flag-Tat-Rev fusion protein); assay: Flag-Tat-Rev fusion protein transactivation of TAR-SIIB promoter; format: cell-based, HIV-1; settings: SIIB reporter HEK293T
Procedure: FIG. 4. […] Shown is n=1. […] Shown is n=1. ARVs: antiretrovirals: 100 nM Efavirenz, 200 nM Lamivudine and 200 nM Raltegravir. C. […] SIIB: a reporter HEK293T stable cell line where the essential apical region of TAR was replaced by the 29-nucleotide stem-loop IIB (SIIB) subdomain of the HIV-1 RRE. A Tat-Rev fusion protein activates transcription of luciferase when Rev binds SIIB, bringing Tat and P-TEFb to RNAPII at the HIV promoter. Shown is mean±SEM of n=4.

[12] = system: ACH-2 cells; assay: Cell-associated HIV Gag mRNA expression / HIV transcription in latently infected ACH-2 cells; format: cell-based; settings: ACH2; 96-day period with ARVs; n=1
Procedure: as §3

[13] = system: OM10.1 cells; assay: SAHA mediated reactivation from latency in OM10.1 cells; format: cell-based, HIV; settings: day 12 and day 32, vs DMSO+ARVs
[14] = system: OM10.1 cells; assay: Cell-associated HIV Gag mRNA expression / HIV transcription in latently infected OM10.1 cells; format: cell-based; settings: 96-day period with ARVs, n=1
Procedure: as §3

[15] = Human immunodeficiency virus 1, 72 h, read-out: IC50 against HIV infection, HeLa-CD4-LTR-LacZ, HIV NL4.3, β-Gal 72 hrs post infection

Row | SMILES | Flag-Tat degradation, cysteine or core regions truncated [1] | Tat degradation, Y26A mutation [2] | Tat degradation, F38A mutation [3] | activity against Tat 86 a.a. from different HIV clades [4] | IC50 against Tat 86 and 101 residues (comparison) [4] | toxicity [5] | CC50 ([6]; analogs of TT-44856 (Table 3)) | IC50 [7, 15] | IC50 ([7]; Human immunodeficiency virus 1, read-out: Infectivity IC50, HeLa-CD4-LTR-LacZ, analogs of TT-44856 (Table 3)) | Tat specificity in TNFα counter-screen [8] | cell viability [9] | CC50 ([6]; analogs of TT-44863 (Table 2)) | SAHA mediated reactivation from latency [10] | IC50 ([7]; Human immunodeficiency virus 1, read-out: Infectivity IC50, HeLa-CD4-LTR-LacZ, analogs of TT-44863 (Table 2)) | Flag-Tat-Rev transactivation of TAR-SIIB [11] | HIV transcription (in words) [12] | SAHA mediated reactivation from latency [13] | HIV transcription (in words) [14] | CC50 ([6]; analogs of TT-44881 (Table 1)) | IC50 ([7]; Human immunodeficiency virus 1, read-out: Infectivity IC50, HeLa-CD4-LTR-LacZ, analogs of TT-44881 (Table 1))
1 | CC(C(=O)NCCCn1ccnc1)(c1ccccc1)c1ccccc1 [TT-44856] | no longer degraded Flag-Tat | ablated lead hits' ability to mediate Tat degradation | only weakly reduced lead hits mediated degradation | activity was confirmed | Equivalent IC50 | without signs of toxicity | > 100 µM | 20.5 ± 9.5 µM | 1 to 20 µM | Tat specific | – | – | – | – | – | – | – | – | – | –
2 | COCCOc1ccc(C(F)(F)F)cc1NC(=O)Cn1cc(C(F)(F)F)cc(Cl)c1=O [TT-44863] | no longer degraded Flag-Tat | ablated lead hits' ability to mediate Tat degradation | only weakly reduced lead hits mediated degradation | activity was confirmed | Equivalent IC50 | without signs of toxicity | – | 6 ± 1.3 µM | – | Tat specific | without affecting cell viability | > 800 µM | potently blocked SAHA mediated reactivation from latency | 1 to 10 µM | inhibit Tat-Rev fusion protein transactivation | inhibit HIV transcription | potently blocked SAHA mediated reactivation from latency | inhibit HIV transcription | – | –
3 | O=C(CCCCN1CCCC1=O)c1nn(-c2ccccc2)c2c1CCC2 [TT-44881] | no longer degraded Flag-Tat | ablated lead hits' ability to mediate Tat degradation | only weakly reduced lead hits mediated degradation | activity was confirmed | Equivalent IC50 | without signs of toxicity | – | 19.7 ± 4.5 µM | – | Tat specific | without affecting cell viability | – | potently blocked SAHA mediated reactivation from latency | – | inhibit Tat-Rev fusion protein transactivation | inhibit HIV transcription | potently blocked SAHA mediated reactivation from latency | inhibit HIV transcription | > 100 µM | 1 to 20 µM
